Read-outs that look alike come from different tables or passages of the source.
Tests used:
DOHH2 cells = experiment: Cell proliferation assay (MTS), DOHH2 cells, 120 h; type: cell-based
Description: (§1) Cell Proliferation Assays
(§2) MTS testing kit was purchased from Promega. The RPMI-1640, Fetal bovine serum and Penicillin-Streptomycin were purchased from Gibco. Dimethyl sulfoxide (DMSO) was purchased from Sigma.
(§3) To investigate whether a compound is able to inhibit the activity of BCL-2 in cells, a mechanism-based assay using DOHH2 (DSMZ No.® ACC 47) and RS4;11 (ATCC® CRL-1873™) cell was developed. In this assay, inhibition of Bcl-2 was detected by the inhibition of DOHH2 cells proliferation. DOHH2 cells were cultured in culture flasks to 40-80% confluence in RPMI-1640 plus 10% fetal bovine serum. Cells were collected and plated onto 96-well plates at desired cell density (5000 cells/well). Plates were incubated overnight at 37° C., with 5% CO2 to adhere. Compounds were added to the plates, and the final compound concentrations were 10000, 3333, 1111, […], 124, 41, 14, 4.6 and 1.5 nM. Plates plated with DOHH2 or RS4;11 cells were placed at 37° C., with 5% CO2 for 120 h (DOHH2) or 72 h (RS4;11) respectively. 20 μl MTS/100 μl medium mixture solution were added to each well and incubate the plates for exactly 2 hours. The reaction was stopped by adding 25 μl 10% SDS per well. Measure absorbance at 490 nm and 650 nm (reference wavelength). IC50 was calculated using GraphPad Prism 5.0.
(§4) Select compounds prepared as described above were assayed according to the biological procedures described herein.

RS4;11 cells = experiment: Cell proliferation assay (MTS), RS4;11 cells, 72 h; type: cell-based
Description: as §1, §2, §3, §4

Structure (SMILES) | IC50 (DOHH2 cells; Homo sapiens, DOHH-2, 120 h) | IC50 (DOHH2 cells) | other results
CC1(C)CCC(CN2CCN(c3ccc(C(=O)NS(=O)(=O)c4cc5c(c([N+](=O)[O-])c4)N[C@H](C4CCC(C)(O)CC4)CO5)c(Oc4cnc5[nH]ccc5c4)c3)CC2)=C(c2ccc(Cl)cc2)C1 (single isomer, unassigned) [Example 2-3A] | 16 nM |  | IC50 (RS4;11 cells; Homo sapiens, RS4-11, 72 h): 1 nM
CC1(C)CCC(CN2CCN(c3ccc(C(=O)NS(=O)(=O)c4cc5c(c([N+](=O)[O-])c4)N[C@H](C4CCC(C)(O)CC4)CO5)c(Oc4cnc5[nH]ccc5c4)c3)CC2)=C(c2ccc(Cl)cc2)C1 (single isomer, unassigned) [Example 2-3B] |  |  | IC50 (DOHH2 cells; Homo sapiens, DOHH-2): 33 nM; IC50 (RS4;11 cells; Homo sapiens): 8 nM
CC1(C)CCC(CN2CCN(c3ccc(C(=O)NS(=O)(=O)c4cc5c(c([N+](=O)[O-])c4)N[C@H](CC4CCC(O)CC4)CO5)c(Oc4cnc5[nH]ccc5c4)c3)CC2)=C(c2ccc(Cl)cc2)C1 (single isomer, unassigned) [Example 2-239A] |  | 5 nM | IC50 (RS4;11 cells; Homo sapiens, RS4-11, 72 h): 1 nM
CC1(C)CCC(CN2CCN(c3ccc(C(=O)NS(=O)(=O)c4cc5c(c([N+](=O)[O-])c4)N[C@H](CC4CCC(O)CC4)CO5)c(Oc4cnc5[nH]ccc5c4)c3)CC2)=C(c2ccc(Cl)cc2)C1 (single isomer, unassigned) [Example 2-239B] |  | 1 nM | IC50 (RS4;11 cells): 1 nM
CC1(C)CCC(CN2CCN(c3ccc(C(=O)NS(=O)(=O)c4cc5c(c([N+](=O)[O-])c4)N[C@H](C4CCC(O)CC4)CO5)c(Oc4cnc5[nH]ccc5c4)c3)CC2)=C(c2ccc(Cl)cc2)C1 (single isomer, unassigned) [Example 2-240A] |  | 5 nM | IC50 (RS4;11 cells; Homo sapiens, RS4-11, 72 h): 1 nM
CC1(C)CCC(CN2CCN(c3ccc(C(=O)NS(=O)(=O)c4cc5c(c([N+](=O)[O-])c4)N[C@H](C4CCC(O)CC4)CO5)c(Oc4cnc5[nH]ccc5c4)c3)CC2)=C(c2ccc(Cl)cc2)C1 (single isomer, unassigned) [Example 2-240B] |  | 1 nM | IC50 (RS4;11 cells): 1 nM
CC1(C)CCC(CN2CCN(c3ccc(C(=O)NS(=O)(=O)c4cc5c(c([N+](=O)[O-])c4)N[C@@H](CC4CCC(O)CC4)CO5)c(Oc4cnc5[nH]ccc5c4)c3)CC2)=C(c2ccc(Cl)cc2)C1 (single isomer, unassigned) [Example 2-244A] |  | 7 nM | IC50 (RS4;11 cells; Homo sapiens, RS4-11, 72 h): 3 nM
CC1(C)CCC(CN2CCN(c3ccc(C(=O)NS(=O)(=O)c4cc5c(c([N+](=O)[O-])c4)N[C@@H](CC4CCC(O)CC4)CO5)c(Oc4cnc5[nH]ccc5c4)c3)CC2)=C(c2ccc(Cl)cc2)C1 (single isomer, unassigned) [Example 2-244B] |  | 1 nM | IC50 (RS4;11 cells): 3 nM
CC1(C)CCC(CN2CCN(c3ccc(C(=O)NS(=O)(=O)c4cc5c(c([N+](=O)[O-])c4)N[C@H](CN4CCOCC4)C5)c(Oc4cnc5[nH]ccc5c4)c3)CC2)=C(c2ccc(Cl)cc2)C1 [Example 1-1, (S)-2-((1H-pyrrolo[2,3-b]pyridin-5-yl)oxy)-4-(4-((4′-chloro-5,5-dimethyl-3,4,5,6-tetrahydro-[1,1′-biphenyl]-2-yl)methyl)piperazin-1-yl)-N-((2-(morpholinomethyl)-7-nitroindolin-5-yl)sulfonyl)benzamide] | 80 nM |  | IC50 (RS4;11 cells; Homo sapiens, RS4-11, 72 h): 48 nM
CC1(C)CCC(CN2CCN(c3ccc(C(=O)NS(=O)(=O)c4cc5c(c([N+](=O)[O-])c4)N[C@@H](c4ccc(Cl)cn4)CO5)c(Oc4cnc5[nH]ccc5c4)c3)CC2)=C(c2ccc(Cl)cc2)C1 [Example 2-198B, (S)-2-((1H-pyrrolo[2,3-b]pyridin-5-yl)oxy)-4-(4-((4′-chloro-5,5-dimethyl-3,4,5,6-tetra-hydro-[1,1′-biphenyl]-2-yl)methyl)piperazin-1-yl)-N-((3-(5-chloropyridin-2-yl)-5-nitro-3,4-dihydro-2H-benzo[b][1,4]oxazin-7-yl)sulfonyl)benzamide] | 444 nM |  | 
CC1(C)CCC(CN2CCN(c3ccc(C(=O)NS(=O)(=O)c4cc5c(c([N+](=O)[O-])c4)N[C@@H](Cc4ccc(Cl)cc4)CO5)c(Oc4cnc5[nH]ccc5c4)c3)CC2)=C(c2ccc(Cl)cc2)C1 [Example 2-207, (S)-2-((1H-pyrrolo[2,3-b]pyridin-5-yl)oxy)-4-(4-((4′-chloro-5,5-dimethyl-3,4,5,6-tetra-hydro-[1,1′-phenyl]-2-yl)methyl)piperazin-1-yl)-N-((3-(4-chlorobenzyl)-5-nitro-3,4-dihydro-2H-benzo[b][1,4]oxazin-7-yl)sulfo-nyl)benzamide] | 402 nM |  | 
CC1(C)CCC(CN2CCN(c3ccc(C(=O)NS(=O)(=O)c4cc5c(c([N+](=O)[O-])c4)N[C@H](c4ccc(Cl)cn4)CO5)c(Oc4cnc5[nH]ccc5c4)c3)CC2)=C(c2ccc(Cl)cc2)C1 [Example 2-217, (R)-2-((1H-pyrrolo[2,3-b]pyridin-5-yl)oxy)-4-(4-((4′-chloro-5,5-dimethyl-3,4,5,6-tetra-hydro-[1,1′-biphenyl]-2-yl)methyl)piperazin-1-yl)-N-((3-(5-chloropyridin-2-yl)-5-nitro-3,4-dihydro-2H-benzo[b][1,4]oxazin-7-yl)sulfonyl)benzamide] | 715 nM |  | 
CC1(C)CCC(CN2CCN(c3ccc(C(=O)NS(=O)(=O)c4cc5c(c([N+](=O)[O-])c4)O[C@H](c4ccc(Cl)cn4)CN5)c(Oc4cnc5[nH]ccc5c4)c3)CC2)=C(c2ccc(Cl)cc2)C1 [Example 2-218, (S)-2-((1H-pyrrolo[2,3-b]pyridin-5-yl)oxy)-4-(4-((4′-chloro-5,5-dimethyl-3,4,5,6-tetra-hydro-[1,1′-biphenyl]-2-yl)methyl)piperazin-1-yl)-N-((2-(5-chloropyridin-2-yl)-8-nitro-3,4-dihdyro-2H-benzo[b][1,4]oxazin-6-yl)sulfonyl)benzamide] | 507 nM |  | 
CC1(C)CCC(CN2CCN(c3ccc(C(=O)NS(=O)(=O)c4cc5c(c([N+](=O)[O-])c4)N[C@H](CC4CCC(C)(O)CC4)CO5)c(Oc4cnc5[nH]ccc5c4)c3)CC2)=C(c2ccc(Cl)cc2)C1 (stereo partly drawn) [Example 2-219, (R)-2-((1H-pyrrolo[2,3-b]pyridin-5-yl)oxy)-4-(4-((4′-chloro-5,5-dimethyl-3,4,5,6-tetra-hydro-[1,1′-biphenyl]-2-yl)methyl)piperazin-1-yl)-N-((3-((4-hydroxy-4-methylcyclo-hexyl)methyl)-5-nitro-3,4-dihydro-2H-benzo [b][1,4]oxazin-7-yl)sulfonyl)benzamide] | 662 nM |  | 
CC1(C)CCC(CN2CCN(c3ccc(C(=O)NS(=O)(=O)c4cc5c(c([N+](=O)[O-])c4)N[C@@H](C4CCNCC4)CO5)c(Oc4cnc5[nH]ccc5c4)c3)CC2)=C(c2ccc(Cl)cc2)C1 [Example 2-228, (S)-2-((1H-pyrrolo[2,3-b]pyridin-5-yl)oxy)-4-(4-((4′-chloro-5,5-dimethyl-3,4,5,6-tetra-hydro-[1,1′-biphenyl]-2-yl)methyl)piperazin-1-yl)-N-((5-nitro-3-(piperidin-4-yl)-3,4-dihydro-2H-benzo[b][1,4]oxazin-7-yl)sulfonyl)benzamide] | 48 nM |  | 
CC1(C)CCC(CN2CCN(c3ccc(C(=O)NS(=O)(=O)c4cc5c(c([N+](=O)[O-])c4)N[C@@H](C4CCC(O)CC4)CO5)c(Oc4cnc5[nH]ccc5c4)c3)CC2)=C(c2ccc(Cl)cc2)C1 (stereo partly drawn) [Example 2-245B, (S)-2-((1H-pyrrolo[2,3-b]pyridin-5-yl)oxy)-4-(4-((4′-chloro-5,5-dimethyl-3,4,5,6-tetra-hydro-[1,1′-biphenyl]-2-yl)methyl)piperazin-1-yl)-N-((3-(4-hydroxycyclohexyl)-5-nitro-3,4-dihydro-2H-benzo[b][1,4]oxazin-7-yl)sulfonyl)benzamide] |  | 1 nM | 
CN1CCN(CC[C@@H]2CNc3cc(S(=O)(=O)NC(=O)c4ccc(N5CCN(CC6=C(c7ccc(Cl)cc7)CC(C)(C)CC6)CC5)cc4Oc4cnc5[nH]ccc5c4)cc([N+](=O)[O-])c3N2)CC1 [Example 4-5, (R)-2-((1H-pyrrolo[2,3-b]pyridin-5-yl)oxy)-4-(4-((4′-chloro-5,5-dimethyl-3,4,5,6-tetra-hydro-[1,1′-biphenyl]-2-yl)methyl)piperazin-1-yl)-N-((2-(2-(4-methylpiperazin-1-yl)ethyl)-8-nitro-1,2,3,4-tetrahydroquinoxalin-6-yl)sulfonyl)benzamide] | 232 nM |  | 
CC1(C)CCC(CN2CCN(c3ccc(C(=O)NS(=O)(=O)c4cc5c(c([N+](=O)[O-])c4)N[C@@H](C4CC4)CO5)c(-n4ncc5nc6[nH]ccc6cc54)c3)CC2)=C(c2ccc(Cl)cc2)C1 [Example 6-2, (S)-4-(4-((4′-chloro-5,5-dimethyl-3,4,5,6-tetrahydro-[1,1′-biphenyl]-2-yl)methyl)piperazin-1-yl)-N-((3-cyclopropyl-5-nitro-3,4-dihydro-2H-benzo[b][1,4]oxazin-7-yl)sulfonyl)-2-(pyrazolo[4,3-b]pyrrolo[3,2-e]pyridin-1(5H)-yl)benzamide] | 264 nM |  | 
CC1(C)CCC(CN2CCN(c3ccc(C(=O)NS(=O)(=O)c4cc5c(c([N+](=O)[O-])c4)N[C@@H](Cc4ccccn4)CO5)c(-n4ncc5nc6[nH]ccc6cc54)c3)CC2)=C(c2ccc(Cl)cc2)C1 [Example 6-3, (S)-4-(4-((4′-chloro-5,5-dimethyl-3,4,5,6-tetrahydro-[1,1′-biphenyl]-2-yl)methyl)piperazin-1-yl)-N-((5-nitro-3-(pyridin-2-ylmethyl)-3,4-dihydro-2H-benzo[b][1,4]oxazin-7-yl)sulfonyl)-2-(pyrazolo[4,3-b]pyrrolo[3,2-e]pyridin-1(5H)-yl)benzamide] | 185 nM |  | 

From patent US11091478B2 (Fochon Pharmaceuticals, Ltd., priority 2017, dated 2021)
